Data as given in patent US20220017486A1, “DOCK1-INHIBITING COMPOUND AND USE THEREOF” (KYUSHU UNIVERSITY, NATIONAL UNIVERSITY CORPORATION, priority 2018, published 2022).

Assays:
DOCK1 (DHR-2 domain) = biological target: T1, DOCK1 (DHR-2 domain) (Homo sapiens, UniProt Q14185); experiment: In vitro GEF assay: Rac activation by DOCK1 DHR-2 domain; type: biochemical, mice and humans
T1 construct: polypeptide fragments corresponding to the DHR-2 domain of DOCK1 or DOCK2 from mice and humans; Histidine-SUMO (N); made in house; host or cells: E. coli Arctic express (DE3)
T1 sequence (Q14185 1207-1617 limits assumed): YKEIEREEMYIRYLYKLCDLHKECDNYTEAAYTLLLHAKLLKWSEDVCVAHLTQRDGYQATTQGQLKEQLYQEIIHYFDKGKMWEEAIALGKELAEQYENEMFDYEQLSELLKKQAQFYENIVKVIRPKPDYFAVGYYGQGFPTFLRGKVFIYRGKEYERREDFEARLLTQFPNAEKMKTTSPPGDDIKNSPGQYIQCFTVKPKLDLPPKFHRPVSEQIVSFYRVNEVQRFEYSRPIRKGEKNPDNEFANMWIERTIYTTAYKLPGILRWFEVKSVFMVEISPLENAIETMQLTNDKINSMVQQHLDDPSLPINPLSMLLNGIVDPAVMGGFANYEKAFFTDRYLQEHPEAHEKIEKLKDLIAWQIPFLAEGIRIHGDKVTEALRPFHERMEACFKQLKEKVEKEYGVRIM
Procedure: DOCK1 and DOCK2, i.e., DOCK-A subfamily members, both activate Rac by catalyzing the GTP-GDP exchange reaction for Rac via their DHR-2 domains. Therefore, in this Pharmacological Test, the inhibitory effect of the compounds of the present invention on Rac activation by DOCK1 or DOCK2 was assessed in an in vitro GEF assay by using polypeptide fragments corresponding to the DHR-2 domain of DOCK1 or DOCK2 from mice and humans. The in vitro GEF assay was performed using a labeled GTP (Bodipy-FL-GTP, Invitrogen), which has a property of increasing the fluorescence intensity when bound to Rac.
The polypeptide fragments corresponding to the DHR-2 domain of DOCK1 or DOCK2 were prepared by expression in E. coli Arctic express (DE3) cells as N-terminal. Histidine-SUMO tag-fused recombinant proteins, followed by purification by affinity column chromatography on nickel-NTA columns.
Rac was prepared by expression in E. coli BL21 (DE3) cells as an N-terminal GST tag-fused recombinant protein, followed by purification by affinity column chromatography on glutathione-Sepharose columns.
Each of the polypeptide fragments corresponding to the DHR-2 domain of DOCK1 or DOCK2, and a predetermined concentration of each test compound (the compounds of the present invention: 33 types of compounds; and comparative compound: TBOPP) dissolved in DMSO were incubated in a reaction solution A (pH 7.0), which contained 20 mM of MES-NaOH, 150 mM of NaCl, 10 mM of MgCl2, and 20 μM of GDP for 20 minutes at room temperature while being shielded from light to thus prepare GEF pretreated products. The final concentration of DMSO was adjusted to 1 mass % in all of the test samples. For a control test, a GEF pretreated product (control) was prepared by incubation in the same manner using DMSO with no test compounds, instead of the DMSO used above in which each test compound was dissolved.
Separately, Rac was added to the reaction solution A (pH 7.0) to a concentration of 15 μM, and was allowed to stand on for 30 min to form a GDP-Rac complex. Bodipy-FL-GTP was added to a concentration of 3.6 μM to 100 μL of the reaction solution A that contained the thus-prepared GDP-Rac complex, and equilibrated at 30° C. for 2 minutes. After equilibration, 50 μL of the GEF pretreated product prepared as described above was added and reacted at 30° C.
Changes in fluorescence intensity of Bodipy-FL-GTP in the reaction solutions were monitored using an EnSpire spectrofluorometer (Perkin Elmer) (excitation wavelength: 488 nm, fluorescence wavelength: 514 nm). The measured values were corrected so that the fluorescence intensity at the beginning of the reaction (0 sec) was 0. Then, an approximate curve (hyperbola) was obtained by plotting the calculated correction values on the y-axis and the time (t) on the x-axis using GraphPad Prism5 (GraphPad software), and the slope at t=0 to 10 seconds was defined as the initial velocity of the guanine nucleotide exchange reaction. The IC50 value was calculated taking the initial reaction velocity of the control, to which only a solvent (DMSO) was added, as 100%.
Based on the obtained results, columns A and B of FIG. 1, FIG. 2, FIG. 3-1, and FIG. 3-2 show the results evaluating the inhibitory effect on Rac activation by DOCK1 (DHR-2 domain) (IC50 value), and DOCK1-selective inhibitory effect (DOCK1/DOCK2 selectivity) of each test compound. The inhibitory effect on Rac activation by DOCK1 (DHR-2 domain) (IC50 value) was determined from the reaction inhibition curve plotted using values of Rac activation by the DOCK1 DHR-2 domain in the presence of various concentrations of the test compounds, taking the values of the control as 100%. […]

[1] = test system: mouse lung carcinoma cell line (3LL cells); experiment: Cell invasion inhibition assay (Matrigel invasion chamber); type: cell-based; details: 22 hours, DMSO control as 100% invasion
Procedure: In this Pharmacological Test, the inhibitory effect of each test compound on cell invasion response was evaluated using a mouse lung carcinoma cell line (3LL cells), a mouse pancreatic cancer cell line (PANC02 cells), and a human breast cancer cell line (MDA-MB-157 cells). Of these, the mouse lung carcinoma cell line (3LL) is a cancer cell line with mutant Ras (K-Ras (G12C)), and the human breast cancer cell line (MDA-MB-157) is a cancer cell line with mutant Rac (Rac1 (P29S)). The experiments were performed in BD BioCoat Matrigel invasion chambers (BD Biosciences).
Specifically, an upper chamber with a Matrigel-coated membrane insert (8 μm pores) at the bottom was equilibrated with DMEM (serum-free medium) for 120 minutes. Thereafter, 300 μL of a suspension of a cancer cell line in DMEM (serum-free) was placed in the upper chamber while 500 μL of DMEM (with 10 mass % FCS) was placed in the lower chamber. Each test compound dissolved in DMSO at a predetermined concentration was added to both the culture media in the upper and lower chambers. As a control, DMSO alone was added to both the culture media in the upper and lower chambers. In all of the experiments, the final DMSO concentration in the culture media was adjusted to 0.2 mass %.
The resulting products were cultured under 5% CO2 at 37° C. for 22 hours (3LL and PANC02 cells) or 48 hours (MDA-MB-157 cells). Then, the upper chamber was removed, and the culture medium was removed. Thereafter, non-invading cells remaining in the upper chamber were removed using a cotton swab, and the cells remaining outside the bottom of the upper chamber (cells that had invaded into the Matrigel, and passed through the membrane insert) were stained with Diff-Quick (Sysmex). After staining, the membrane inserts with Matrigel were cut out using a scalpel to prepare slides, and the number of invading cells was counted under an optical microscope.
The results were evaluated based on percent cell invasion (%: Invasion) and percent inhibition (%: Inhibition). The percent cell invasion was obtained by converting the number of invading cells in the presence of each test compound into a percentage, taking the number of invading cells in the control test, in which DMSO was added alone, as 100%; and the percent inhibition was obtained by deducting the percent cell invasion from 100.

[2] = test system: mouse lung carcinoma cell line (3LL); experiment: Tumor growth of subcutaneously transplanted mouse lung carcinoma cells; type: in vivo, C57BL/6 mice; details: 3LL s.c. in mice, 0.25 mg/300 μL, day 26 to day 29
Procedure: The mouse lung carcinoma cell line (3LL) was suspended in 200 μL of PBS(−), and transplanted (5×10^5 cells per mouse) into the dorsal subcutaneous region of C57BL/6 mice (6 weeks old). To a 6:1:1 mixture of PBS/Cremophor EL/ethanol, RT-22 as a representative of the compounds of the present invention was added to a concentration of 0.25 mg/300 μL, and the resulting mixture was loaded into an SMP-300 micro infusion pump (iPRECIO), which was subcutaneously implanted on the previous day of the transplantation, to perform continuous intravenous administration (n=5 mice). The control group was only administered with an equivalent volume of a solvent (a 6:1:1 mixture of PBS/Cremophor EL/ethanol) (n=6 mice). The transverse and longitudinal diameters of the tumor mass were measured over time for a period of 4 weeks from the start of administration, and the tumor volume (V) was calculated according to the formula: V=π/6x√((transverse diameter×longitudinal diameter)^3).

O=C(Cn1cc(S(=O)(=O)N2CCCC2)ccc1=O)c1ccc(-c2cccc(C(F)(F)F)c2)cc1 [TBOPP, 1-(2-oxo-2-(3′-(trifluoromethyl)-[1,1′-biphenyl]-4-yl)ethyl)-5-(pyrrolidin-1-ylsulfonyl)pyridin-2(1H)-one, reference compound]
DOCK1-selective inhibitory effect (DOCK1/DOCK2 selectivity) (DOCK1 (DHR-2 domain); IC50 for DOCK2 divided by IC50 for DOCK1): 2.6 | IC50 (DOCK1 (DHR-2 domain); in vitro GEF assay, Bodipy-FL-GTP, DMSO control as 100%, read-out: inhibitory effect (IC50 value) on Rac activation by DOCK1 (DHR-2 domain)): 8.4 µM | percent cell invasion inhibition [1]: 95% | tumor size reduced by, compared to the control group [2]: 21-24%
